Reference: patent US20070128217A1 (priority 2003, published 2007)

What was measured:
[1] = system: recombinant human anti-SARS-CoV antibody 03-018; type: binding; parameters: Binding of antibody 03-018 to linear peptides of the N protein of SARS-CoV Urbani / Binding of antibody 03-018 to looped/cyclic peptides of the N protein of SARS-CoV Urbani: unit not given here
[2] = system: rabbit serum obtained by immunizing a rabbit with the SARS-CoV strain Frankfurt 1; type: binding; parameters: Binding of a rabbit serum to linear peptides / Binding of a rabbit serum to looped peptides / Rabbit serum linear peptides / Rabbit serum looped peptides / Binding of a rabbit serum to linear peptides of protein N of SARS-CoV Urbani (Rabbit serum linear peptides) / Binding of a rabbit serum to looped/cyclic peptides of protein N of SARS-CoV Urbani (Rabbit serum looped peptides): unit not given here
[3] = system: control sera (pooled serum of ten healthy LUMC hospital workers; commercial negative donor pooled serum from the Dutch bloodbank); type: binding, human; parameters: Binding of Control serum LUMC to linear peptides / Binding of Control serum Blood-bank to linear peptides / Binding of Control serum LUMC to looped peptides / Binding of Control Serum Blood-Bank to Looped peptides / Binding of Control serum LUMC to linear peptides of the protein M of SARS-CoV Urbani / Binding of Control serum Blood-bank to linear peptides of the protein M of SARS-CoV Urbani / Binding of Control serum LUMC to looped peptides of the protein M of SARS-CoV Urbani / Binding of Control Serum Blood-Bank to Looped peptides of the protein M of SARS-CoV Urbani: unit not given here
[4] = system: antibodies in sera from SARS patients (sera 1a, 1b, 2, 6, 37, 62, London, SARS-yellow, SARS-green); type: binding, human; parameters: Binding of serum 6 to linear peptides of protein X1 of SARS-CoV Urbani / Binding of serum 37 to linear peptides of protein X1 of SARS-CoV Urbani / Binding of serum 6 to looped/cyclic peptide (PEPSCAN-ELISA) / Binding of serum 37 to looped/cyclic peptide (PEPSCAN-ELISA) / Binding of serum 37 to looped/cyclic peptides of protein X1 of SARS-CoV Urbani / Binding of serum 6 to linear peptides of protein X2 / Binding of serum 37 to linear peptides of protein X2 / Binding of serum 37 to looped/cyclic peptides of protein X2 of SARS-CoV Urbani / Binding of serum 6 to linear peptides of protein M of SARS-CoV Urbani / Binding of serum 37 to linear peptides of protein M of SARS-CoV Urbani / Binding of serum 6 to looped/cyclic peptides of protein M of SARS-CoV Urbani / Binding of serum 37 to looped/cyclic peptides of protein M of SARS-CoV Urbani / Binding of serum 6 to linear peptides of protein X3 of SARS-CoV Urbani / Binding of serum 37 to linear peptides of protein X3 of SARS-CoV Urbani / Binding of serum 37 to looped/cyclic peptides of protein X3 of SARS-CoV Urbani / Binding of serum 6 to linear peptides of protein X4 of SARS-CoV Urbani / Binding of serum 37 to linear peptides of protein X4 of SARS-CoV Urbani / Binding of serum 37 to looped/cyclic peptides of protein X4 of SARS-CoV Urbani / Binding of serum 6 to linear peptides of protein X5 of SARS-CoV Urbani / Binding of serum 37 to linear peptides of protein X5 of SARS-CoV Urbani / Binding of serum 37 to looped/cyclic peptides of protein X5 of SARS-CoV Urbani / Binding of serum 6 to linear peptides of protein N of SARS-CoV Urbani / Binding of serum 37 to linear peptides of protein N of SARS-CoV Urbani / Binding of serum 6 to linear peptide (PEPSCAN-ELISA) / Binding of serum 1a to looped/cyclic peptides of protein N of SARS-CoV Urbani / Binding of serum 1b to looped/cyclic peptides of protein N of SARS-CoV Urbani / Binding of serum 2 to looped/cyclic peptides of protein N of SARS-CoV Urbani / Binding of serum 6 to looped/cyclic peptides of protein N of SARS-CoV Urbani / Binding of serum 37 to looped/cyclic peptides of protein N of SARS-CoV Urbani / Binding of serum 62 to looped/cyclic peptides of protein N of SARS-CoV Urbani / Binding of serum London to looped/cyclic peptides of protein N of SARS-CoV Urbani / Binding of serum SARS-green to looped/cyclic peptides of protein N of SARS-CoV Urbani: unit not given here

| Sequence | Binding of antibody 03-018 to linear peptides of the N protein of SARS-CoV Urbani [1] | Binding of antibody 03-018 to looped/cyclic peptides of the N protein of SARS-CoV Urbani [1] | Binding of a rabbit serum to linear peptides of protein N of SARS-CoV Urbani (Rabbit serum linear peptides) [2] | Binding of a rabbit serum to looped/cyclic peptides of protein N of SARS-CoV Urbani (Rabbit serum looped peptides) [2] | Binding of Control Serum Blood-Bank to Looped peptides [3] | Binding of Control serum Blood-bank to linear peptides [3] | Binding of Control serum LUMC to linear peptides [3] | Binding of Control serum LUMC to looped peptides [3] | Binding of serum 1a to looped/cyclic peptides of protein N of SARS-CoV Urbani [4] | Binding of serum 1b to looped/cyclic peptides of protein N of SARS-CoV Urbani [4] | Binding of serum 2 to looped/cyclic peptides of protein N of SARS-CoV Urbani [4] | Binding of serum 6 to looped/cyclic peptides of protein N of SARS-CoV Urbani [4] | Binding of serum 37 to looped/cyclic peptides of protein N of SARS-CoV Urbani [4] | Binding of serum 62 to looped/cyclic peptides of protein N of SARS-CoV Urbani [4] | Binding of serum London to looped/cyclic peptides of protein N of SARS-CoV Urbani [4] | Binding of serum SARS-green to looped/cyclic peptides of protein N of SARS-CoV Urbani [4] | Binding of serum SARS-yellow to looped/cyclic peptides of protein N of SARS-CoV Urbani [4] | Binding of serum 1a to linear peptides of protein N of SARS-CoV Urbani [4] | Binding of serum 1b to linear peptides of protein N of SARS-CoV Urbani [4] | Binding of serum 2 to linear peptides of protein N of SARS-CoV Urbani [4] | other results |
| --- | --- | --- | --- | --- | --- | --- | --- | --- | --- | --- | --- | --- | --- | --- | --- | --- | --- | --- | --- | --- | --- |
| SQASSRSSSRSRGNS | 0.1 | 0.2 | 0.1 | 0.6 | 0.6 | 0.7 | 0.7 | 0.6 | 0.3 | 0.2 | 0.3 | 0.2 | 0.5 | 0.4 | 0.4 | 0.0 | 0.3 |  |  |  | Binding of serum 1a to linear peptide (PEPSCAN-ELISA) [4]: 0.2; Binding of serum 1b to linear peptide (PEPSCAN-ELISA) [4]: 0.1; Binding of serum 2 to linear peptide (PEPSCAN-ELISA) [4]: 0.2; Binding of serum 6 to linear peptide (PEPSCAN-ELISA) [4]: 0.4; Binding of serum 37 to linear peptide (PEPSCAN-ELISA) [4]: 0.6; Binding of serum 62 to linear peptide (PEPSCAN-ELISA) [4]: 0.6; Binding of serum London to linear peptide (PEPSCAN-ELISA) [4]: 0.4; Binding of serum SARS-green to linear peptide (PEPSCAN-ELISA) [4]: 0.2; Binding of serum SARS-yellow to linear peptide (PEPSCAN-ELISA) [4]: 0.6 |
| RNPNNNAATVLQLPQ | 0.1 | 0.2 | 0.1 | 0.8 | 0.8 | 0.7 | 0.7 | 0.9 | 0.4 | 0.4 | 0.7 | 0.3 | 0.8 | 0.9 | 0.6 | 0.6 | 0.4 | 0.2 | 0.1 | 0.3 | Binding of serum 6 to linear peptides of protein N of SARS-CoV Urbani [4]: 0.2; Binding of serum 37 to linear peptides of protein N of SARS-CoV Urbani [4]: 0.6; Binding of serum 62 to linear peptides of protein N of SARS-CoV Urbani [4]: 0.7; Binding of serum London to linear peptides of protein N of SARS-CoV Urbani [4]: 0.5; Binding of serum SARS-green to linear peptides of protein N of SARS-CoV Urbani [4]: 0.3; Binding of serum SARS-yellow to linear peptides of protein N of SARS-CoV Urbani [4]: 0.6 |
| RATRRVRGGDGKMKE | 0.1 | 0.2 | 0.2 | 0.2 | 0.4 | 0.8 | 0.7 | 0.3 | 0.2 | 0.1 | 0.2 | 0.1 | 0.5 | 0.2 | 0.2 | 0.0 | 0.3 | 0.2 | 0.1 | 0.4 | Binding of serum 6 to linear peptides of protein N of SARS-CoV Urbani [4]: 0.2; Binding of serum 37 to linear peptides of protein N of SARS-CoV Urbani [4]: 0.8; Binding of serum 62 to linear peptides of protein N of SARS-CoV Urbani [4]: 0.7; Binding of serum London to linear peptides of protein N of SARS-CoV Urbani [4]: 0.5; Binding of serum SARS-green to linear peptides of protein N of SARS-CoV Urbani [4]: 0.3; Binding of serum SARS-yellow to linear peptides of protein N of SARS-CoV Urbani [4]: 0.6 |
| LIRQGTDYKHWPQIA | 0.1 | 0.1 | 0.2 | 0.0 | 0.6 | 0.7 | 0.7 | 0.5 | 0.4 | 0.5 | 0.5 | 0.3 | 0.6 | 0.5 | 0.3 | 1.0 | 1.1 | 0.3 | 0.2 | 0.4 | Binding of serum 6 to linear peptides of protein N of SARS-CoV Urbani [4]: 0.2; Binding of serum 37 to linear peptides of protein N of SARS-CoV Urbani [4]: 0.8; Binding of serum 62 to linear peptides of protein N of SARS-CoV Urbani [4]: 0.9; Binding of serum London to linear peptides of protein N of SARS-CoV Urbani [4]: 0.9; Binding of serum SARS-green to linear peptides of protein N of SARS-CoV Urbani [4]: 0.4; Binding of serum SARS-yellow to linear peptides of protein N of SARS-CoV Urbani [4]: 0.6 |
